The text below walks through data of PubChem BioAssay AID179 (DTP/NCI, 2004).

Several values for one entry are separate records, joined by “and”; a condition that tells them apart may be missing. Identical values can stand only once. Activity calls are given as the source filed them.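 How the source made its calls: active means compounds giving half or more protection of infected cells from virus-caused growth loss, again on retest; inactive means the rest.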

For the assay, the system named is CEM cells HIV-1 protection, formazan growth assay. Description: NCI AIDS Antiviral Assay. Conditions: for IC50: measured here: growth of uninfected CEM cells. In short, it runs like this:
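Steps: treat uninfected and HIV-1-infected human CEM cells at five drug levels; quantify growth by soluble formazan; retest any compound reaching 50% protection; classify actives from the retest.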

Turning to `Cc1ccc(S(=O)(=O)N/N=C(/CC(=O)c2c(C)n([O-])c3ccccc3[n+]2=O)C(=O)Nc2ccc(C)c(C)c2)cc1`, the EC50 – broadly, the concentration that produces a half-maximal response – was over 6.46 µM and the IC50 – broadly, the concentration at which inhibition is half-maximal – was over 6.46 µM. Turning to `COC(=O)n1c(=O)nc2c3c(ncn21)Oc1c(c(-c2ccccc2)nn1-c1ccccc1)C3c1ccc(Cl)cc1` (configuration not stated), the EC50 was over 100 µM and the IC50 is 2.34 µM.

For `COc1ccc(N=Nc2ccc3oc(=O)c(C(=O)Nc4ccccc4C)cc3c2)cc1`, the EC50 was over 200 µM and the IC50 is 66.1 µM.

For `Nc1ncnc2c1ncn2C1C[C@H](O)[C@]2(CO)C[C@H]12` (some centres not stated), the EC50 is over 50.1 µM and the IC50 was over 50.1 µM. `O=C(O)CNS(=O)(=O)c1ccc(NC(=O)c2cccc([N+](=O)[O-])c2)cc1`: the outcome was inactive. Turning to `CCOC(=O)n1[nH]c(=O)n(-c2ccccc2)c1=O`, the EC50 was over 200 µM and the IC50 was over 200 µM.

In the case of `O=S(=O)([O-])c1ccc2c(N=Nc3ccc(/C=C\c4ccc(N=Nc5c([O-])ccc6cc(S(=O)(=O)[O-])ccc56)cc4S(=O)(=O)[O-])c(S(=O)(=O)[O-])c3)c([O-])ccc2c1.[Cu+2].[Cu+2].[Na+]`, the EC50 is over 19.1 µM and the IC50 turned out to be 15.8 µM.

As to `COc1ccc2c(=O)c(S)coc2c1`, the EC50 is over 200 µM and the half-inhibitory concentration (IC50) turned out to be 30.2 µM.

For the compound `COc1cc2c(c(OC)c1OC)C(=O)[C@@H]1[C@H]2N1C(N)=O`, the EC50 is over 200 µM and the IC50 stood at 4.17 µM.

As to `COc1ccc2nc3c(nc2c1)C(C)(C)C=C3c1ccc(Br)cc1`, the EC50 is over 100 µM and the IC50 is over 100 µM. `C=CC(C)(C)c1c(OC)oc2ccc(OC)c(C)c2c1=O`: the EC50 is over 200 µM and the IC50 is 38.9 µM.

As to `CCCCCCCC1(N=[N+]=[N-])C(=O)c2ccccc2N(C)C1=O` (configuration not stated), the EC50 was 21.9 µM and the IC50 came out at 110 µM. Taken in the same sequence, the figures for `COc1ccc(C(=O)c2ccc(OC)c3ccccc23)c2ccccc12` were over 200 µM and 1.51 µM. On to `O=c1c(=[n+]2ccc(=C([O-])c3ccccc3)cc2)/c(=N/S(=O)(=O)c2ccccc2)c(=O)c2ccccc12`, for which the EC50 was over 200 µM and the IC50 came to 6.17 µM.

For the compound `C=CCOCC(O)CNCC(O)COCC=C` (configuration not stated), the EC50 was over 200 µM and the concentration for half-maximal inhibition (IC50) is over 200 µM.

With `CC(=O)OCC(OC(C)=O)C(OC(C)=O)C(/C=N/N(C(C)=O)S(=O)(=O)c1ccc(/C=C2\NC(=O)NC2=O)cc1)OC(C)=O` (configuration not stated), the EC50 is over 200 µM and the IC50 was 105 µM. Consider `Nc1c(O)cc(N=C2C(=O)C=CC=C2C(=O)O)c(O)c1C(=O)O`, for which the outcome was inactive.

For `CC(=O)N(CCc1ccccc1)C(C#N)c1ccccc1` (configuration not stated), the EC50 was over 200 µM and the half-inhibitory concentration (IC50) is over 200 µM. Regarding `C#CCNC(=O)NCCCCC(NC(=O)OCc1ccccc1)C(=O)OCc1ccccc1` (configuration not stated), the EC50 was over 151 µM and the half-maximal inhibitory concentration (IC50) was determined as 97.7 µM. For the compound `Cc1nn(C)pc1P(C)(=S)n1nc(N(C)C)np1` (configuration not stated), the EC50 was over 776 µM and the IC50 was over 776 µM. Consider `Cc1ccc(S(=O)(=O)N/N=C/c2oc(-c3ccncc3)c(-c3ccncc3)c2[N+](=O)[O-])cc1`, for which the EC50 is over 15.5 µM and the IC50 was over 15.5 µM. On to `COC(=O)C1C(C(=O)OC)C2(OC(c3ccc(Cl)cc3)=CC2=O)C12OC(c1ccc(Cl)cc1)=CC2=O` (configuration not stated), for which the EC50 is over 200 µM and the IC50 was 4.27 µM. For `CC1CCC2(CC1)N=C1CCC(C)CC1C1(CCC(C)CC1)N2` (configuration not stated), the EC50 is over 200 µM and the 50% inhibitory concentration (IC50) was determined as 97.7 µM.

In the case of `CC1C(=O)N(c2ccccc2)NC12CCCc1ccccc12` (configuration not stated), the EC50 is over 200 µM and the half-inhibitory concentration (IC50) was determined as 91.2 µM. As for `NC(CCCC(N)P(=O)(O)O)P(=O)(O)O` (configuration not stated), the outcome was inactive.

`CCC(C)c1cccc(C)c1NC(=O)C(=O)Cc1nc2ccccc2s1` (configuration not stated): the EC50 was over 186 µM and the IC50 was over 186 µM. For the compound `O=C(Nc1ccc(/C=C/c2ccc(NC(=O)c3ccc(N=Nc4cc(S(=O)(=O)O)c5cccnc5c4O)cc3)cc2S(=O)(=O)O)c(S(=O)(=O)O)c1)c1ccc(N=Nc2cc(S(=O)(=O)O)c3cccnc3c2O)cc1`, the EC50 was 17.8 µM and the 50% inhibitory concentration (IC50) was over 100 µM. The like results for `CCCc1cc(=O)oc2c3c(c4c(c12)OC(C)(C)CC4)O[C@H](C)[C@H](C)C3=O` were, in that order, over 30.2 µM and 13.2 µM. Taken in the same sequence, the figures for `CN1C[C@@H]2CC(=O)CC[C@@H]2C[C@H]1C#N` were over 676 µM and 339 µM. Taken in the same sequence, the figures for `COC(=O)[C@H]1[C@@H](C(C)C)O[C@@H](C(C)C)O[C@H]1C(F)(F)F` were over 200 µM and over 200 µM. For `OCC(O)C1OCOC2COCOC21` (configuration not stated), the EC50 was over 200 µM and the IC50 is over 200 µM. For the compound `C=C1C(=O)O[C@@H]2CC(C)C3C(O)CC(O)[C@@]3(C)C[C@H]12` (some centres not stated), the EC50 is over 933 µM and the IC50 turned out to be 14.1 µM. Taken in the same sequence, the figures for `COc1nc(NC2OCC(O)C(O)C2O)c(NC2OCC(O)C(O)C2O)c(=O)n1C` (configuration not stated) were over 575 µM and over 575 µM. The like results for `C[N+]12CCCCC1C(CN1C(=O)c3ccccc3C1=O)CCC2` (configuration not stated) were, in that order, 58.9 µM and over 200 µM. `CC(C)N(C(=O)C12C3C4C5C3C1(C(=O)N(C(C)C)C(C)C)C5(C#N)C42)C(C)C` (configuration not stated): the EC50 is over 93.3 µM and the IC50 is over 93.3 µM.

For `Cc1c2ccccc2nc(CS(=O)(=O)c2ccccc2)[n+]1[O-]`, the EC50 was over 200 µM and the half-maximal inhibitory concentration (IC50) is 12.6 µM.

For `Cc1[nH]n(-c2nc(O)c(-c3ccccc3)c(=O)[nH]2)c(=O)c1CCO`, the EC50 is over 200 µM and the IC50 was over 200 µM. As to `CCOP(=O)(OCC)/C(=C/NC(=S)c1cccnc1)C(=O)OC`, the EC50 was over 200 µM and the half-maximal inhibitory concentration (IC50) turned out to be 34.7 µM. For `c1ccc2c(c1)cnn1cnnc21`, the EC50 was over 1480 µM and the 50% inhibitory concentration (IC50) is 661 µM. The like results for `O=S(=O)(O)c1ccc2c(N=NNc3ccc(NN=Nc4cccc5cc(S(=O)(=O)O)ccc45)cc3)cccc2c1` were, in that order, over 759 µM and 457 µM. With `CC(=O)[O-].N.N.N.N.N.[Co+3].[O-][Cl+3]([O-])([O-])[O-]`, the outcome was inactive. On to `O=C(Nc1ccc(CN2CCOCC2)cc1)c1ccc(C(=O)Nc2ccc(CN3CCOCC3)cc2)cc1`, for which the EC50 is over 200 µM and the half-inhibitory concentration (IC50) is over 200 µM.

In the case of `O=C(/C=C/c1cc(O)c(O)cc1O)OCCc1ccccc1`, the EC50 is over 200 µM and the half-maximal inhibitory concentration (IC50) worked out at 9.33 µM. Regarding `CC(=O)NNc1nc(C)c(C(=O)/C=C/C=C/c2ccccc2)s1`, the EC50 is over 21.9 µM and the half-maximal inhibitory concentration (IC50) is over 21.9 µM. For the compound `O=C1CCC2=C(CCCC2=O)N1`, the EC50 is over 200 µM and the IC50 is over 200 µM. Turning to `O=c1ccc(=O)n(CCc2ccccn2)[nH]1`, the EC50 was over 200 µM and the IC50 is over 200 µM. For the compound `CC1(C)C(C#N)=[N+]([O-])C(C)(C)N1O`, the EC50 is over 200 µM and the concentration for half-maximal inhibition (IC50) worked out at 123 µM. For the compound `C[C@@]12CCC[C@@H](OC(=O)c3ccc(Br)cc3)[C@@H](C1)C(=O)CC2`, the outcome was inactive. As to `[O]=[Sb]([OH])([OH])[c]1ccccc1`, the concentration giving a half-maximal response (EC50) was over 200 µM; the concentration for half-maximal inhibition (IC50) is 77.6 µM and > 200 µM. As for `COc1ccc(/C=C2/CCCC/C2=N/O)cc1`, the EC50 is over 295 µM and the IC50 was determined as 182 µM.

`CN=CN(C)c1c2ccccc2nc2ccccc12`: the EC50 is over 200 µM and the IC50 is over 200 µM. Take `C1CCC(CC[N+]23CC[N+](CCC4CCCC4)(CC2)C3)C1`: the EC50 was over 692 µM and the IC50 was 347 µM. Taken in the same sequence, the figures for `CSc1c(C(=O)Nc2ccccc2)c(N)nn1-c1ccccc1` were over 200 µM and 70.8 µM.

Consider `Cc1ccc2c3c(c(C)nc2c1)C(=O)c1ccccc1-3`, for which the EC50 is over 10.5 µM and the IC50 is over 10.5 µM. For `CCCCCCC(=O)COP(=O)(OCC(=O)CCCCCC)OCC1C=CC(n2cc(C)c(=O)[nH]c2=O)O1` (configuration not stated), the EC50 is 0.562 µM and the IC50 worked out at 174 µM. For `CC1C2(C)OCC(C#N)(C(=N)O2)C1(C#N)C#N` (configuration not stated), the EC50 is over 200 µM and the IC50 came out at 20.9 µM.

For the compound `Cc1nc2ccccc2c(=O)n1-c1ccccc1Br`, the EC50 was over 214 µM and the half-maximal inhibitory concentration (IC50) is over 214 µM. `CC1CSC(=S)N1C(=O)N1C(=S)SCC1C` (configuration not stated): the result was inactive. For the compound `CC1(C)C2CCC(CN)(C2)C1N` (configuration not stated), the EC50 was over 200 µM and the IC50 was over 200 µM. In the case of `Oc1ccccc1C(c1cc2c(cc1O)OCO2)N1CCOCC1` (configuration not stated), the EC50 was over 200 µM and the IC50 is 11 µM. The like results for `N#Cc1c(-c2ccccc2)cc(-c2ccccc2)[nH]c1=O` were, in that order, over 36.3 µM and over 36.3 µM.

Consider `O=[N+]([O-])c1ccc(-c2cnc3ccccn23)cc1`, for which the EC50 is over 105 µM and the IC50 was over 105 µM. As for `COc1ccc(-c2cc(=O)c3ccccc3o2)c(OC)c1OC`, the EC50 was over 200 µM and the IC50 is 31.6 µM. Taken in the same sequence, the figures for `CC(C)(C)c1ccc(Oc2ccc(C#N)c(C#N)c2)c(C(C)(C)C)c1` were over 77.6 µM and over 77.6 µM. The like results for `O=S(=O)(N/N=C1\CC2CCC1C2)c1ccccc1` (configuration not stated) were, in that order, over 200 µM and over 200 µM. As for `CN(C)NC(=S)Nc1ccccc1Br`, the EC50 is over 200 µM and the half-inhibitory concentration (IC50) was over 200 µM.

For the compound `CCCC#CCC(CC#CCCC)(C(=O)O)C(=O)O`, the EC50 is over 490 µM and the half-inhibitory concentration (IC50) was over 490 µM.

On to `Cc1cccc(-n2c(C)nc3ccc(NC4OC(CO)C(O)C(O)C4O)cc3c2=O)c1` (configuration not stated), for which the EC50 is over 200 µM and the IC50 is over 200 µM. With `Cc1cc(C)cc(Nc2cc(=O)[nH]c(=O)[nH]2)c1`, the EC50 was over 200 µM and the IC50 is over 200 µM. For `CCCCCCCCCCCCCCCCCC[N+](C)(C)Cc1ccc(C[N+](C)(C)CCCCCCCCCCCCCCCCCC)cc1`, the outcome was inactive. For `CCOP(=O)(OCC)/C(C#N)=C/c1cc(O)ccc1O`, the EC50 was over 832 µM and the IC50 amounted to 145 µM. Regarding `CC(C)(CC1=CC(=O)C=CC1=O)Cc1ccccc1`, the EC50 is over 200 µM and the half-inhibitory concentration (IC50) turned out to be 37.2 µM.
